{"source": "patent US20240280490A1", "about": "“SYSTEMS AND METHODS FOR SIMULTANEOUS NEAR-INFRARED LIGHT AND VISIBLE LIGHT IMAGING” (priority 2020, published 2024)", "key": {"[1]": {"system": "Grade 4 Atypical Teratoid Rhabdoid Tumor (ATRT) in the posterior fossa/brain stem", "assay": "Intraoperative NIR fluorescence imaging during pediatric brain tumor resection", "assay_type": "in vivo, human", "method": "This example describes use of the imaging system and/or method disclosed herein for coaxial illumination and visualization of tozuleristide fluorescence during surgical resection of a pediatric brain tumor. The imaging system of the present invention was used to image brain tissue to detect a cancer using fluorescence imaging. Surgery was performed to remove cancer from the subject.\nSubject T613 was diagnosed with a Grade 4 Atypical Teratoid Rhabdoid Tumor (ATRT) in the posterior fossa/brain stem. Tozuleristide which is a peptide-fluorophore detectable agent (15 mg/m2 dose), was given by intravenous (IV) bolus injection about 13.5 hours prior to the start of surgery. The imaging system was attached to the Zeiss Pentero surgical microscope prior the start of surgery, and the microscope head and arm and the imaging system and proximal imaging cable were enclosed in the microscope manufacturer's standard sterile drape. The drape's cover glass was secured over the bottom window aperture of the imaging system.\nAfter the tumor was exposed, the imaging platform was initialized and used continuously. The imaging platform enabled the surgeon to view fluorescence and visible imaging separately and together on the imaging station display, simultaneously with viewing the surgical site in visible light through the operating microscope's eyepieces. […] Moreover, there was no need to reposition the operating microscope to view the imaging platform's fluorescence and visible images, thus allowing normal imaging of the surgical area through the microscope's eyepieces together with the fluorescence imaging system during the operation, which decreased disruption to the surgical workflow.\nVideo was captured for the duration of the tumor resection, and still images were captured of the exposed tumor. […] FIGS. 15A-15F show images taken from the tumor resection with the near-infrared (NIR) fluorescence images of the tumor using the imaging system (FIGS. 15B and 15E) and the overlay image with the NIR or IR fluorescence overlaid with the white light or visible light spectrum illumination (FIGS. 15C and 15F). […] In the overlay image, the normal brain tissue appeared red, as it does under normal visible light or white light as shown the visible light images of the tumor ([…]). The surgeon noted that only tumor tissue appeared fluorescent."}, "[2]": {"system": "vascular lesion (abnormal vasculature) in brain tissue", "assay": "Intraoperative NIR fluorescence imaging during resection of a cerebral vascular lesion (arteriovenous or cavernous malformation)", "assay_type": "in vivo, human", "settings": "for Fluorescence in surrounding normal brain tissue and normal vasculature / Tozuleristide fluorescence in the abnormal vascular tissue / vascular lesion: pediatric subject, 22 mg IV approximately 5-6 hours before surgery and image collection, in situ", "method": "This example describes use of the imaging system and/or methods disclosed herein for coaxial illumination and visualization of tozuleristide fluorescence during surgical resection of an arteriovenous malformation or cavernous malformation in a pediatric patient. The imaging system of the present invention was used to image brain tissue to detect abnormal vasculature using fluorescence imaging. Surgery was performed to remove the abnormality from the subject.\nA pediatric subject with a history of anosmia was found on MRI to have a 3.5 cm T1-hypointense, T2/FLAIR-hyperintense mass in the right middle frontal gyrus with a central enhancing nodule, initially diagnosed pre-operatively to be a low-grade glioma. […] The patient received 22 mg tozuleristide via IV injection approximately 5-6 hours before surgery and image collection. The imaging system head was attached to the Zeiss Pentero surgical microscope along with two eyepieces prior the start of surgery.\nAfter the lesion was exposed, the imaging system was initialized and used continuously. The imaging system enabled the surgeon to view fluorescence and visible imaging together and simultaneously with the operating microscope. A microsurgical resection was performed through a right frontal craniotomy. […] The abnormal tissue was completely resected. The patient recovered without deficit. Pathology confirmed the absence of tumor.\nVideo was captured for the duration of the resection, and still images were captured of the exposed lesion. […] FIGS. 29A-I show images taken from the vascular lesion with the near-infrared (NIR) fluorescence images of the vascular lesion using the imaging system. […] In the overlay image, the normal brain tissue and normal blood vessels appeared pink or light tan to red, as it does under normal visible light or white light. The surgeon noted that only the abnormal vascular tissue appeared fluorescent.\nFIGS. 29A-I show representative images of in situ or intra-operative tissue during surgery on a vascular lesion in a patient, wherein 22 mg of tozuleristide was administered to the human subject. […] Labeled arrows indicate non-fluorescent regions of normal blood vessels (“BV”) and normal brain tissue (“NB”). In contrast, fluorescence signal corresponding to lighter and brighter areas in the NIR or IR image, was indicative of the presence of tozuleristide on the abnormal vascular lesion (“VL”), and not in normal tissue. […] The arrows mark the same locations as shown in the NIR or IR image in FIG. 29E. […] Fluorescence in the vascular lesion (“VL”) clearly differentiated it from the surrounding normal tissues, including normal blood vessels (“BV”). […] Arrows indicate the vascular lesion (labeled “VL”) and adjacent normal brain (labeled “NB”), which is non-fluorescent. […] While the normal brain has a light tan to pink color (light gray in a gray scale image), it is perfused with normal blood vessels that can be differentiated from the vascular lesion by the absence of fluorescence."}, "[3]": {"system": "vascular lesion (abnormal vasculature) in brain tissue", "settings": "ICG alone; general comparison statement; cited from earlier work"}, "[4]": {"settings": "Subject T613, 15 mg/m2 IV bolus about 13.5 hours prior to start of surgery, in situ"}}, "note": "“Also recorded” adds a separate entry of the source.", "data": [{"compound": "Tozuleristide", "values": [{"measurement": "Surgeon's assessment of the distinction between tumor and normal tissue fluorescence", "setting": "[1]; NIR or IR fluorescence using the imaging system, compared with normal visible light", "value": "very good distinction between tumor and normal tissue fluorescence"}, {"measurement": "Fluorescence in non-tumor brain tissue", "setting": "[1]; [4]", "value": "did not show any fluorescence"}, {"measurement": "Tozuleristide fluorescence in the exposed tumor (NIR or IR fluorescence image)", "setting": "[1]; [4]", "value": "observed in situ in the exposed tumor"}, {"measurement": "Histopathology of the fluorescent tissue samples", "setting": "[1]; tumor resection, Subject T613", "value": "confirmed to be viable tumor"}, {"measurement": "Time after injection at which diseased tissue can be highlighted", "setting": "[2]; general statement, fluorescence dependent on pathological tissue binding and uptake", "value": "up to 30 hours"}, {"measurement": "Fluorescence in surrounding normal brain tissue and normal vasculature", "setting": "[2]", "value": "showed no fluorescence"}, {"measurement": "Tozuleristide fluorescence in the abnormal vascular tissue / vascular lesion", "setting": "[2]", "value": "indicative of the presence of tozuleristide in the vascular lesion; also recorded: fluoresced avidly"}, {"measurement": "Fluorescence in surrounding normal brain tissue and normal vasculature", "setting": "[2]; listed as Tozuleristide", "value": "no discernable background fluorescence"}, {"measurement": "Tozuleristide fluorescence in the abnormal vascular tissue / vascular lesion", "setting": "[2]; listed as Tozuleristide", "value": "observed in situ in the exposed vascular lesion"}, {"measurement": "Histopathology of the fluorescent tissue samples", "setting": "[2]; vascular lesion resection", "value": "confirmed to be non-cancerous and vascular in nature"}]}, {"compound": "CC1(C)C(/C=C/C=C/C=C/C=C2\\N(CCCCS(=O)(=O)O)c3ccc4ccccc4c3C2(C)C)=[N+](CCCCS(=O)(=O)[O-])c2ccc3ccccc3c21", "note": "[ICG, indocyanine green]", "values": [{"measurement": "Blood vessel fluorescence after injection", "setting": "[3]", "value": "transiently lights up blood vessels immediately after injection"}]}]}
